Test results: patent publication US4556560A, “Methods for the treatment and prophylaxis of diaper rash and diaper dermatitis” (The Procter & Gamble Company, priority 1983, dated 1985)

Legend:
[1] = system: primary skin irritation caused by prolonged contact of a urine/feces mixture under occluded conditions; experiment: Hairless mouse patch test: feces/urea homogenate patched with lipase-inhibiting agent solution (Examples I-V); assay type: in vivo, hairless mice
Source text: (§1) This method may be used to determine the utility and effect of lipase-inhibiting agents, or compositions containing these agents, on primary skin irritation caused by prolonged contact of a urine/feces mixture under occluded conditions.
(§2) Male, hairless mice at 8-12 weeks of age are used for the study. The animals are housed individually in plastic shoe box cages for the experiments, and fed Purina® Rodent Laboratory Chow and tap water ad libitum. Mice are assigned numbers during each study which are posted on each cage.
(§3) The mice are cared for, and the room conditions maintained following acceptable animal study conditions.
(§4) Patch treatment compositions are prepared by taking the fecal material to be tested and mixing it with a 2% urea solution at a weight:weight ratio of 1:4 feces:urea. 0.1 ml of the lipase-inhibiting agent solution or composition of the desired concentration is patched along with 0.375 ml of the urine/feces mixture. Patches for the mice are prepared by saturating an absorbent material (such as cotton) with the feces/urine suspension, placing it on the skin and covering it with an impermeable material. For example, this may be done by cutting away the adhesive border from a 37×20 mm Webril pad. The Webril pad will then be cut into quarters to obtain 1 cm^2 patches. Each patch will be saturated with 0.1 ml of the lipase-inhibiting agent solution and 0.375 ml of the urine/feces mixture. The control patch is simply 0.375 ml of the urine/feces mixture. Prior to application of test or control patches, each mouse is anesthetized by placement into a chamber containing ether. The test patch is then placed midline on the mouse back, towards the shoulder, and covered with Blenderm® (3M) tape in order to occlude the patch site. The mouse is next wrapped with Scanpor® tape (Norgeplaster A/S) to secure the patch. After 24 hrs., the initial patch is removed and a fresh patch of test substance or a fresh control is applied, as described above. After 24 hrs., the second patch is removed, thus giving a total occluded patch time of 48 hrs.
(§5) Approximately 1 hr. after removal of the second patch, the test site skin condition is evaluated using the grading scales outlined in the following tables:
(§6) Each animal is examined by two graders, at least one of whom is blind as to the treatments applied. Both graders' scores should be calculated for each of the above categories, as well as a primary Irritation Index equalling the sum of scores for each category.
(§7) In Examples I-V, fecal material is mixed with a 2% urea solution at a weight:weight ratio of 1:4 feces:urea, and this homogenate is patched as described above in the Hairless Mouse model with 0.375 ml of this homogenate. The pure homogenate is patched as the control. Where a specific concentration of lipase-inhibiting agent is expressed, the feces/urea homogenate is patched in combination with 0.1 ml of a solution of the described lipase-inhibiting agent solution.

[2] = system: lipase; experiment: Lipase activity of stool-free, urine-free pure lipase composition with lipase-inhibiting agent (Examples VI, VII); assay type: biochemical; set-up: LIPASE ACTIVITY: unit not given here; conditions: for % REDUCTION LIPASE ACTIVITY / LIPASE ACTIVITY: pure lipase composition; for inhibition of lipase: inability to provide the critical level of free metal ion Zn++
Protocol: (§8) For example, the method of commerce available from Harleco® diagnostics utilizes the activity of lipase, i.e., the digestion of triglycerides to diglycerides and monoglycerides, glycerol and free fatty acids. After this digestion is allowed to proceed at the optimal buffered pH, the turbidity is measured spectrophotometrically at 400 nanometers.
(§9) In Examples VI and VII, a stool-free and urine-free pure lipase composition of the expressed activity is patched in the Hairless Mouse model as described above. This is the Control. This lipase composition is patched in combination with 0.1 ml of the lipase-inhibiting agent solution at the concentration expressed.
In this Example, a non-stool, no-urine pure lipase composition is patched in the hairless mouse model, and then in combination with a lipase-inhibiting agent at the indicated concentrations.

[3] = system: lipase; experiment: Relative lipase activity of the feces/urea patch with lipase-inhibiting agent (Examples I, II, IV); assay type: biochemical
Protocol: as §8, §7

[4] = system: lipase-related skin irritation; experiment: Hairless mouse patch test with pure lipase composition (Example VII); assay type: in vivo, hairless mice; conditions: 100 mM (ZnO, ZnCO3, Zn undecylenate patched as suspensions)
Source text: as §1, §2, §3, §4, §5, §6
as §9, with “expressed. […]” for “expressed.”

[5] = footnote to Example VII
[6] = background statement; cited from earlier work
[7] = Example III, 100 mM, control 4.95 ± 0.45 (control lipase activity 100,000)
[8] = Example VI, 50 mM, lipase control 40,320
[9] = Example VI, 100 mM, lipase control 40,320
[10] = Example I, 10 mM, 0.1 ml with 0.375 ml feces/urea homogenate, 48 hrs occluded, control 7.20 ± 0.75
[11] = Example I, 25 mM, 0.1 ml with 0.375 ml feces/urea homogenate, 48 hrs occluded, control 7.20 ± 0.75
[12] = Example I, 50 mM, 0.1 ml with 0.375 ml feces/urea homogenate, 48 hrs occluded, control 7.20 ± 0.75
[13] = Example I, 100 mM, 0.1 ml with 0.375 ml feces/urea homogenate, 48 hrs occluded, control 7.20 ± 0.75
[14] = Example I, 10 mM agent solution, control 6250
[15] = Example I, 25 mM agent solution, control 6250
[16] = Example I, 50 mM agent solution, control 6250
[17] = Example I, 100 mM agent solution, control 6250
[18] = Example IV, 10 mM, control 127,500
[19] = Example IV, 25 mM, control 127,500
[20] = Example IV, 50 mM, control 127,500
[21] = Example IV, 100 mM, control 127,500
[22] = Example V, 100 mM, control 4.45 ± 0.17
[23] = Example VII, 100 mM (ZnO, ZnCO3, Zn undecylenate patched as suspensions), control 36,750

[Ca+2].[Cl-].[Cl-] [CaCl2, reference compound]
IRRITATION INDEX [1, 7]: 3.55 ± 1.10

[Cl][Co][Cl] [CoCl2, cobalt chloride]
% REDUCTION LIPASE ACTIVITY ([2]; Example VI, 50 mM): 41% | LIPASE ACTIVITY [2, 8]: 23,750 | % REDUCTION LIPASE ACTIVITY ([2]; Example VI, 100 mM): 81% | LIPASE ACTIVITY [2, 9]: 7,750

O=S(=O)([O-])[O-].[Cu+2] [CuSO4, copper sulfate]
% REDUCTION LIPASE ACTIVITY ([2]; Example VI, 50 mM): 54% | LIPASE ACTIVITY [2, 8]: 18,500 | % REDUCTION LIPASE ACTIVITY ([2]; Example VI, 100 mM): 59% | LIPASE ACTIVITY [2, 9]: 16,500

O.O.O.O.O.O=S(=O)([O-])[O-].[Cu+2] [CuSO4.5H2 O, copper sulfate pentahydrate]
IRRITATION INDEX [1, 10]: 6.75 ± 1.42 | IRRITATION INDEX [1, 11]: 5.35 ± 2.93 | IRRITATION INDEX [1, 12]: 3.50 ± 3.08 | IRRITATION INDEX [1, 13]: 5.50 ± 1.05 | RELATIVE LIPASE ACTIVITY [3, 14]: 4750 | RELATIVE LIPASE ACTIVITY [3, 15]: 2250 | RELATIVE LIPASE ACTIVITY [3, 16]: 750 | RELATIVE LIPASE ACTIVITY [3, 17]: 0

O.O.O.O.O.O.[Cl-].[Cl-].[Cl-].[Fe+3] [FeCl3.6H2 O, iron(III)chloride hexahydrate]
RELATIVE LIPASE ACTIVITY [3, 18]: 177,500 | RELATIVE LIPASE ACTIVITY [3, 19]: 128,750 | RELATIVE LIPASE ACTIVITY [3, 20]: 111,350 | RELATIVE LIPASE ACTIVITY [3, 21]: 6250 | % REDUCTION LIPASE ACTIVITY ([2]; Example VI, 50 mM): 99% | LIPASE ACTIVITY [2, 8]: 500 | % REDUCTION LIPASE ACTIVITY ([2]; Example VI, 100 mM): 100% | LIPASE ACTIVITY [2, 9]: 0

[Cl][La]([Cl])[Cl] [LaCl3, lanthanum chloride]
IRRITATION INDEX [1, 7]: 0 ± 0

[Cl][Sn][Cl] [SnCl2, tin(II)chloride]
IRRITATION INDEX [1, 22]: 0.50 ± 0.16 | % REDUCTION LIPASE ACTIVITY ([2]; Example VI, 50 mM): 93% | LIPASE ACTIVITY [2, 8]: 3,000 | % REDUCTION LIPASE ACTIVITY ([2]; Example VI, 100 mM): 97% | LIPASE ACTIVITY [2, 9]: 1,250

C=CCCCCCCCCC(=O)[O-].C=CCCCCCCCCC(=O)[O-].[Zn+2] [Zn undecylenate]
% REDUCTION IN IRRITATION INDEX [4]: 73% | LIPASE ACTIVITY [2, 23]: 10,080

O=C([O-])[O-].[Zn+2] [ZnCO3, zinc carbonate, reference compound]
% REDUCTION IN […] [4]: 5% | LIPASE ACTIVITY [2, 23]: 35,000 | inhibition of lipase [2]: ineffective

[Cl-].[Cl-].[Zn+2] [ZnCl2, zinc chloride]
% REDUCTION IN IRRITATION INDEX [4]: 97% | IRRITATION INDEX [1, 10]: 6.05 ± 1.23 | IRRITATION INDEX [1, 11]: 4.95 ± 1.36 | IRRITATION INDEX [1, 12]: 0.80 ± 1.01 | IRRITATION INDEX [1, 13]: 1.15 ± 0.97 | IRRITATION INDEX ([1]; Example II, 20 mM, control 6.67 ± 0.94): 3.50 ± 2.44 | IRRITATION INDEX ([1]; Example II, 30 mM, control 6.67 ± 0.94): 4.87 ± 1.37 | IRRITATION INDEX ([1]; Example II, 40 mM, control 6.67 ± 0.94): 2.62 ± 1.86 | IRRITATION INDEX ([1]; Example II, 50 mM, control 6.67 ± 0.94): 2.54 ± 1.78 | IRRITATION INDEX ([1]; Example II, 60 mM, control 6.67 ± 0.94): 1.42 ± 1.62 | IRRITATION INDEX ([1]; Example II, 70 mM, control 6.67 ± 0.94): 1.17 ± 1.01 | IRRITATION INDEX [1, 7]: 0.55 ± 1.23 | IRRITATION INDEX ([1]; Example IV, 10 mM, control 6.15 ± 1.08): 5.55 ± 0.95 | IRRITATION INDEX ([1]; Example IV, 25 mM, control 6.15 ± 1.08): 0.50 ± 0.82 | IRRITATION INDEX ([1]; Example IV, 50 mM, control 6.15 ± 1.08): 0.45 ± 0.64 | IRRITATION INDEX ([1]; Example IV, 100 mM, control 6.15 ± 1.08): 1.75 ± 1.65 | IRRITATION INDEX [1, 22]: 1.85 ± 0.61 | RELATIVE LIPASE ACTIVITY [3, 14]: 5000 | RELATIVE LIPASE ACTIVITY [3, 15]: 0 | RELATIVE LIPASE ACTIVITY [3, 16]: 0 | RELATIVE LIPASE ACTIVITY [3, 17]: 0 | RELATIVE LIPASE ACTIVITY ([3]; Example II, 20 mM, control 6000): 500 | RELATIVE LIPASE ACTIVITY ([3]; Example II, 30 mM, control 6000): 1250 | RELATIVE LIPASE ACTIVITY ([3]; Example II, 40 mM, control 6000): 0 | RELATIVE LIPASE ACTIVITY ([3]; Example II, 50 mM, control 6000): 0 | RELATIVE LIPASE ACTIVITY ([3]; Example II, 60 mM, control 6000): 0 | RELATIVE LIPASE ACTIVITY ([3]; Example II, 70 mM, control 6000): 0 | RELATIVE LIPASE ACTIVITY [3, 18]: 72,500 | RELATIVE LIPASE ACTIVITY [3, 19]: 0 | RELATIVE LIPASE ACTIVITY [3, 20]: 0 | RELATIVE LIPASE ACTIVITY [3, 21]: 0 | % REDUCTION LIPASE ACTIVITY ([2]; Example VI, 50 mM): 96% | LIPASE ACTIVITY [2, 8]: 1,500 | % REDUCTION LIPASE ACTIVITY ([2]; Example VI, 100 mM): 98% | LIPASE ACTIVITY [2, 9]: 750 | LIPASE ACTIVITY [2, 23]: 1,250

[O]=[Zn] [ZnO, zinc oxide, reference compound]
% REDUCTION IN […] [4]: 10% | concentration of solution the salt is capable of forming [5]: 20 µM | LIPASE ACTIVITY [2, 23]: 33,000 | inhibition of lipase [2]: ineffective | solubility in water [6]: almost totally insoluble

Zinc glycerolate
solubility in water [6]: insoluble
